From ChEMBL document CHEMBL1201862, “PubChem BioAssay data set” (2004)
Calls of active or inactive are those of the source. Where a SMILES comes first, the peptide text is derived from it. [ ]: non-standard residue; d: D form. The star is where a group is joined. ξ: configuration not given here. ξNMe2Val = CC(C)C(C(=O)*)N(C)C; NMeV = CN[CH](C(=O)O)C(C)C; NHBn = c1ccc(CN*)cc1

Legend:
[1] = target: T1, Hepatocyte nuclear factor 4-alpha (Homo sapiens, UniProt P41235); assay type: functional, cell-based;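 also: biochemical luminescence-based dose-response counterscreen measuring inhibition of HNF4 dimerization, run alongside a screen for blockers of ABHD5–perilipin-5 interaction; split luciferase complementation of HNF4 fusion proteins in cell lysate measuring dimerization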
T1 sequence (P41235 whole entry): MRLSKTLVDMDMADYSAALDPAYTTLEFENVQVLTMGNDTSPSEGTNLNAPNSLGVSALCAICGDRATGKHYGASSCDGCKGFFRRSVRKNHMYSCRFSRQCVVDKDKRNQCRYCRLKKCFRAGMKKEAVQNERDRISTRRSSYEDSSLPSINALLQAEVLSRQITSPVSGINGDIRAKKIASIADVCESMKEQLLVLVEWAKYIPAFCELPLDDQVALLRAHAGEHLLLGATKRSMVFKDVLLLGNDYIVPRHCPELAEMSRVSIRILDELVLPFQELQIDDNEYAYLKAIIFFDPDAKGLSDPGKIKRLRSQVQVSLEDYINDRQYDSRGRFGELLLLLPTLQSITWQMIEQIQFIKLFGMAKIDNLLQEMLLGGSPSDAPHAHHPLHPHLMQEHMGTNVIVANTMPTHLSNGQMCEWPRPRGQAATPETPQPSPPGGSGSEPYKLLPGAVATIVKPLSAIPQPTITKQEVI

[2] = target: T2, DNA repair and recombination protein RAD54-like (Homo sapiens, UniProt Q92698); experiment: inhibitors of human RAD54 branch migration, confirmation, biochemical, fluorescence, cherry-picked samples, dose series (AID 651657); assay type: functional
T2 sequence (Q92698 whole entry): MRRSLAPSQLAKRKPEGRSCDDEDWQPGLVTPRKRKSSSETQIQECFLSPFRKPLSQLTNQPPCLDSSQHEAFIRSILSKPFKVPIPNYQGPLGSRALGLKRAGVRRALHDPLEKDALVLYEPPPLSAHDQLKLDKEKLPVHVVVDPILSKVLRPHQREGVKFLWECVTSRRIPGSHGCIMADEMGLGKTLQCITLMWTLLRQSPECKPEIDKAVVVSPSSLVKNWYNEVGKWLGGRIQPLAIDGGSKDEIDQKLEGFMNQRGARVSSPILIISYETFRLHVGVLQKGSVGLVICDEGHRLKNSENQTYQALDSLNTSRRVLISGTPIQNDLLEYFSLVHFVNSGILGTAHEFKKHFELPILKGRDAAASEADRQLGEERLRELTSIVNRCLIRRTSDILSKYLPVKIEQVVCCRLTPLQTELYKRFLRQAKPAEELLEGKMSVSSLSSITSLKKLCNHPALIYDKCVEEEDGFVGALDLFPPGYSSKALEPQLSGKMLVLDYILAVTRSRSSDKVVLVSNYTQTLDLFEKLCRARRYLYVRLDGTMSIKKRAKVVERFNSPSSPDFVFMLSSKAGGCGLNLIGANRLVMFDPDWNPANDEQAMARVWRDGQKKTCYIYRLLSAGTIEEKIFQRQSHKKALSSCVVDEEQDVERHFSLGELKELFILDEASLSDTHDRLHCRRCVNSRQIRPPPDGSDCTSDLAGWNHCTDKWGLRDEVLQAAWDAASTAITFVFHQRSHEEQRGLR

[3] = inhibitors of clade B AD8 Env fusion, dose response, cell-based, cherry-pick (AID 652062); assay type: functional;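 also: luciferase signal from cell-cell fusion driven by HIV-1 clade B AD8 Env; potency is for inhibitors of fusion seen as a drop in luminescence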
[4] = ZM109 Env clade C HIV-1 fusion inhibitors, dose response, HeLa effector, CEM target cells, luciferase, cherry-pick (AID 652058); assay type: functional, cell-based
[5] = cells; assay type: functional, cell-based
[6] = target: T3, Nuclear receptor subfamily 0 group B member 1 (Homo sapiens, UniProt P51843); assay type: functional, cell-based;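 also: HEK293T cells transfected with SF-1 and DAX-1 plus StAR promoter luciferase reporter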
T3 sequence (P51843 whole entry): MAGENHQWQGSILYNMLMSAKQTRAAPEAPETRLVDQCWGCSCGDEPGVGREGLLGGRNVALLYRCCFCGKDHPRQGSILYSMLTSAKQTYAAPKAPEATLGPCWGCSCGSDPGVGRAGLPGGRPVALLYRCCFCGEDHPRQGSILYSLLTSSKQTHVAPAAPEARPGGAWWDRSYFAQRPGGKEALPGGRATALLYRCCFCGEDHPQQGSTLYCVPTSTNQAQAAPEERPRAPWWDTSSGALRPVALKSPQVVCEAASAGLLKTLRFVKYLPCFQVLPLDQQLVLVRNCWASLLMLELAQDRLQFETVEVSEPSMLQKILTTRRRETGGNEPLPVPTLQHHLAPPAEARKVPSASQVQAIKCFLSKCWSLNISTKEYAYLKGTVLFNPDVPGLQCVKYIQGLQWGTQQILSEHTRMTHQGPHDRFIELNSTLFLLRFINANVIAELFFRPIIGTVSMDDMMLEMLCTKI

[7] = target: T4, Sentrin-specific protease 1 (Homo sapiens, UniProt Q9P0U3); experiment: potency of human SENP1 inhibitors, dose response, biochemical, kinetic FRET (AID 651697); assay type: functional; conditions: read-out: IC50_Mean
T4 sequence (Q9P0U3 whole entry): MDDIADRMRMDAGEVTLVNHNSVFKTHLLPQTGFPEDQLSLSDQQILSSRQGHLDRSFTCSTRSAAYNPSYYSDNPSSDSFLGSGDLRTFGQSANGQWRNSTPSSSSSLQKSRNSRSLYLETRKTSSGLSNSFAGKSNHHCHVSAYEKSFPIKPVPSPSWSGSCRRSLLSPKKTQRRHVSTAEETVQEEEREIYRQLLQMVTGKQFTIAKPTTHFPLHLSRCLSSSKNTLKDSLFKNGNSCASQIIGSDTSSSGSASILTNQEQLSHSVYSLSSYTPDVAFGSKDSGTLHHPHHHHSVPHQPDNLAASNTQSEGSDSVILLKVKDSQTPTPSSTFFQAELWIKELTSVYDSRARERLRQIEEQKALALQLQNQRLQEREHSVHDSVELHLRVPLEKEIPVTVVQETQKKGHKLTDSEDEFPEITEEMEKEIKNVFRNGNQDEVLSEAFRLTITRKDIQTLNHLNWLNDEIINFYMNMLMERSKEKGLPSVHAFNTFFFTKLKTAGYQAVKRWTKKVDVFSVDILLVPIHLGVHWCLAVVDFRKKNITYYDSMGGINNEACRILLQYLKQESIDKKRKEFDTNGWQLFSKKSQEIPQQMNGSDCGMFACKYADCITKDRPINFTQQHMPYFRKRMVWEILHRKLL

[8] = target: T4, Sentrin-specific protease 1; experiment: Dose response confirmation of small molecule inhibitors of the catalytic domain of the SUMO protease, SENP1 in a FRET assay.; assay type: functional; conditions: read-out: IC50_Mean
[9] = target: T5, Long-chain-fatty-acid--AMP ligase FadD28 (Mycobacterium tuberculosis, UniProt P9WQ59); experiment: Fluorescence polarization aasay to screen for inhibitors that compete for the binding of FadD28 to a bisubstrate Measured in Biochemical System Using Plate Reader - 2147-01_Inhibitor_Dose_CherryPick_Activity.; assay type: functional, Mycobacterium tuberculosis H37Rv
T5 sequence (P9WQ59 whole entry): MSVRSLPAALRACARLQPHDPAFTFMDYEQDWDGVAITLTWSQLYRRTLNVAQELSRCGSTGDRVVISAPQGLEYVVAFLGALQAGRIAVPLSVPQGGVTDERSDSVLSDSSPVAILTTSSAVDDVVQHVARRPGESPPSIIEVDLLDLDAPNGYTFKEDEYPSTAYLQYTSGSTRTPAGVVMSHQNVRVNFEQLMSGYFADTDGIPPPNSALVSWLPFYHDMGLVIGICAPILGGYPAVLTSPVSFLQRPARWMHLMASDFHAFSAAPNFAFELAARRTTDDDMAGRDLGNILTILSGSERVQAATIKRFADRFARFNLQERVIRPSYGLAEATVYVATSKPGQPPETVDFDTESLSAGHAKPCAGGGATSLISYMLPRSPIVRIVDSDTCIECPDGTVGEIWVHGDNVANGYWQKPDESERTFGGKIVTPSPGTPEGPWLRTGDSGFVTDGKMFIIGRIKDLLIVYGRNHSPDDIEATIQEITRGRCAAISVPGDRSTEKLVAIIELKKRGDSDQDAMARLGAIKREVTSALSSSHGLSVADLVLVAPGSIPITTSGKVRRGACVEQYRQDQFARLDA

[10] = target: FAD-linked sulfhydryl oxidase ALR (Homo sapiens, UniProt P55789); experiment: inhibitors of human ALR sulfhydryl oxidase, dose response, biochemical, H2O2 detection, luminescence, cherry-pick (AID 493248)
FAD-linked sulfhydryl oxidase ALR, sequence (P55789 whole entry): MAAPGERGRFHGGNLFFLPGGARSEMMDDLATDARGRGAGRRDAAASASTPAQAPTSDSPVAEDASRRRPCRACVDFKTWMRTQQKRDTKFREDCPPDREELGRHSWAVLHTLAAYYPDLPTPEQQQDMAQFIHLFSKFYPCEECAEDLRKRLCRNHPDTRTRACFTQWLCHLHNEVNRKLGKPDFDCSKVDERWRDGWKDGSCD

[11] = target: Genome polyprotein (dengue virus type 2, UniProt P29990); experiment: Dengue-2 NS5 methyltransferase inhibitors, primary screen, biochemical, confirmation dose response (AID 588689); assay type: functional
Genome polyprotein, sequence (P29990 2492-3391 limits assumed): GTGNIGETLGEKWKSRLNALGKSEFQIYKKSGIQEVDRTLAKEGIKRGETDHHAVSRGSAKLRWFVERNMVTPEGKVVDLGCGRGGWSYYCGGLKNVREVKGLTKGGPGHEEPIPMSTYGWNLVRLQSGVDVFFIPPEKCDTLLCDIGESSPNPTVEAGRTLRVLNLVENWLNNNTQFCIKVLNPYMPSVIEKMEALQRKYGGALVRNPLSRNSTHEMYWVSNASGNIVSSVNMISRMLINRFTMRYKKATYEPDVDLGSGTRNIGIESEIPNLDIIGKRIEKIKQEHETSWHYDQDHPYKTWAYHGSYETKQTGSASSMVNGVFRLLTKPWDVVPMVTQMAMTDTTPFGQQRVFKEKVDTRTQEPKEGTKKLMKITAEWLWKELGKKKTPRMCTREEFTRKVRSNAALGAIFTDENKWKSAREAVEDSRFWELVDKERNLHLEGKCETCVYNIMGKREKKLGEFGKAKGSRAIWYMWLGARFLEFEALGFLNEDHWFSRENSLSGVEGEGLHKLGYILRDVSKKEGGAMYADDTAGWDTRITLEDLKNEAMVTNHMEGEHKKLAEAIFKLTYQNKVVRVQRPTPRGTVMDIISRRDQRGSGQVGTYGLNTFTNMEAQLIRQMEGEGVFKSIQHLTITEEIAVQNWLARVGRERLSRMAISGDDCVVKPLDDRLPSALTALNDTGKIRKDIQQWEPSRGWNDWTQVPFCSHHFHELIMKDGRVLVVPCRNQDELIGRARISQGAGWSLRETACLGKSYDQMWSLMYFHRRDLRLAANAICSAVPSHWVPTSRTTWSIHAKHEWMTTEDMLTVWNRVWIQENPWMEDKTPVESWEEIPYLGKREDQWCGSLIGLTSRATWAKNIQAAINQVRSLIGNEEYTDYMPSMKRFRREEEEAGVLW

[12] = target: T6, Methionyl-tRNA synthetase, putative (Trypanosoma brucei brucei, UniProt Q38C91); assay type: functional, Trypanosoma brucei brucei strain 927/4 GUTat10.1
T6 sequence (Q38C91 whole entry): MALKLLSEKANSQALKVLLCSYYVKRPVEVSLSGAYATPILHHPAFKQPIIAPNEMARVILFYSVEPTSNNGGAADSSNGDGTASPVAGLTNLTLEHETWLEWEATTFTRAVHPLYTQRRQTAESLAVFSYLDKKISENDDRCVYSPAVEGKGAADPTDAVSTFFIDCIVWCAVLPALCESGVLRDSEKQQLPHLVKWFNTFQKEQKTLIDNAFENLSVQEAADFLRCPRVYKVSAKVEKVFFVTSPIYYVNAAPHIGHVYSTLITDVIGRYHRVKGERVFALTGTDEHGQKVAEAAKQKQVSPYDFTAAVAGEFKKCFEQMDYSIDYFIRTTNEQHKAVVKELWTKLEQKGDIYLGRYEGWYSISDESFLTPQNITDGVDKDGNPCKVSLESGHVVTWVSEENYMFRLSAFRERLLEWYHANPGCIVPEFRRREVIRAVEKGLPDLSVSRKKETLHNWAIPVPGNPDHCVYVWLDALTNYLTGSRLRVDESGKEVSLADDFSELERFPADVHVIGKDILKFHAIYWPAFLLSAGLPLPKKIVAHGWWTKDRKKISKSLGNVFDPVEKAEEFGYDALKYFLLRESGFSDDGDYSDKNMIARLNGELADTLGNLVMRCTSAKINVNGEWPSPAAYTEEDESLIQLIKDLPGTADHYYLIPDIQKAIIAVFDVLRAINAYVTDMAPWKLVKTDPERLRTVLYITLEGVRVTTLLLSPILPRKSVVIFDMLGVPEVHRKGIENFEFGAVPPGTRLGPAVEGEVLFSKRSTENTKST

[13] = Counterscreen for inhibitors of Trypanosoma brucei methionyl tRNA synthetase (MetRS): Luminescence-based cell-based high throughput dose response assay to identify compounds that are cytotoxic to Jurkat human T lymphocyte cells.; assay type: functional
[14] = target: Beta-galactosidase (Escherichia coli, UniProt Q8VNN2); experiment: Dose response counterscreen for EBI2 assay utilizing the enzyme, b-galactosidase.; assay type: functional
Beta-galactosidase, sequence (Q8VNN2 whole entry): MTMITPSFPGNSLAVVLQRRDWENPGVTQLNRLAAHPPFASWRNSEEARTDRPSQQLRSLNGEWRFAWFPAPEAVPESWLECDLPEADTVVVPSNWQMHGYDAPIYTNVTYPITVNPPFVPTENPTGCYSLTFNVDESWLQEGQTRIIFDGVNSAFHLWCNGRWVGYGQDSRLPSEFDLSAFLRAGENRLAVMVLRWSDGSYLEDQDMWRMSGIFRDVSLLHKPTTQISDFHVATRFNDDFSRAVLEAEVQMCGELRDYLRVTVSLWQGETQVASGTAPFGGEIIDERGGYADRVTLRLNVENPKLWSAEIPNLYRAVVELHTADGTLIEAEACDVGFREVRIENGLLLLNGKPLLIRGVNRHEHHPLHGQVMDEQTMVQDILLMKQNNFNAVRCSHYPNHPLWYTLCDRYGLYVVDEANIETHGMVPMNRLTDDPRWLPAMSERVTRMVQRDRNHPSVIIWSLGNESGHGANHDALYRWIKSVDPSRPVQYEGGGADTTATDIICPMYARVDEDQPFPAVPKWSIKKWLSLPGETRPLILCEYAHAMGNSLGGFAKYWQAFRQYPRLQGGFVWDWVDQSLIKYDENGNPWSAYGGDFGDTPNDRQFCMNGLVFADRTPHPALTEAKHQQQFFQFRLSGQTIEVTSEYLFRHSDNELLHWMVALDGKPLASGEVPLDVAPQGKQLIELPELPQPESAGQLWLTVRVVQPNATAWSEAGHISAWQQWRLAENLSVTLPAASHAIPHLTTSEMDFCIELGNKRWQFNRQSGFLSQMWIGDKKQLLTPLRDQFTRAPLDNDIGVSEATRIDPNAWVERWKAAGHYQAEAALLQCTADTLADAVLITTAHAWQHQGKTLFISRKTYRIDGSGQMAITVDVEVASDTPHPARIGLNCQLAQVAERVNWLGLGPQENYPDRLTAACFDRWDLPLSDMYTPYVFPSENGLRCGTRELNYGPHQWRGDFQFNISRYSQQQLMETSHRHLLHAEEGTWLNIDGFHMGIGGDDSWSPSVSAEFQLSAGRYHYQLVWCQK

[15] = target: T7, DNA repair protein RAD52 homolog (Homo sapiens, UniProt P43351); assay type: functional, biochemical
T7 sequence (P43351 whole entry): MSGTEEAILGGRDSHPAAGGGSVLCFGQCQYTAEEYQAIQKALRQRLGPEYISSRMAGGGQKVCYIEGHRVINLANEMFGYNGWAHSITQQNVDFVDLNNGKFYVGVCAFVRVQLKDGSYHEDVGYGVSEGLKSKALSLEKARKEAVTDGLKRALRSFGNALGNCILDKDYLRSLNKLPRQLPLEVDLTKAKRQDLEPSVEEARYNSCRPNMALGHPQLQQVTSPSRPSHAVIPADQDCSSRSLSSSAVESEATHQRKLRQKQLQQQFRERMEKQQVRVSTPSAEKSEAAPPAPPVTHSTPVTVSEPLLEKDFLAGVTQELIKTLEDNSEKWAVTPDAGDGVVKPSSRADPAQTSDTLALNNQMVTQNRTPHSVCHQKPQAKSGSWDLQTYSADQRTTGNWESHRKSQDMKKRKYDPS

## COc1ccc(C(C(=O)NC(C)(C)C)n2c(=O)c(-c3ccco3)nc3ccccc32)cc1 (centres undefined)
[1]
  IC50: 1.78 µM (active)

## COC(=O)c1c(NC(=O)c2ccc(S(=O)(=O)N3CCOCC3)cc2)sc2c1CCN(C(C)C)C2
[2]
  AC50: 14.7 µM (active)

## Cc1cc(Nc2cccc(C(F)(F)F)c2)cc(=O)n1-c1cccc(C(F)(F)F)c1
[3]
  AC50: 9.49 µM (active)
[4]
  AC50: 1.85 µM (active)

## CC(C)C(NC(=O)C(C(C)C)N(C)C)C(=O)N(C)C(C(=O)N1CCCC1C(=O)N1CCCC1C(=O)NCc1ccccc1)C(C)C (centres undefined) (ξNMe2Val-V[NMeV]PP-NHBn; configuration not given here)
[5]
  IC50: > 67.5 µM (inactive)
[6]
  IC50: > 67.5 µM (inactive)

## COc1cccc(-c2nc3nc(C)cc(C)n3c2Nc2c(C)cccc2C)c1
[7]
  IC50: 28.5 µM (inactive)
[8]
  IC50: 15.4 µM (active)

## CC(NC(=O)c1ccc2[nH]cnc2c1)c1ccccc1 (centres undefined)
[9]
  AC50: 22.7 µM (active)

## O=C(O)c1ccc(Nc2nc3ccccc3nc2NS(=O)(=O)c2ccc(F)cc2)cc1
[10]
  AC50: > 100 µM (inactive)
[9]
  AC50: 62.1 µM (active)
[11]
  IC50: 24.9 µM (active)

## COc1cc(OC)c(OC)cc1/C=N/Nc1nc2ccccc2[nH]1
[12]
  IC50: 119 µM (inactive)
[13]
  IC50: 83.3 µM (inactive)

## O=C1C=C(c2ccc3ncccc3c2)C[C@@H](c2ccc(Cl)cc2)C1
[14]
  IC50: > 80 µM (inactive)

## CC(C)Nc1ncnc2c1ncn2[C@H]1CN(Cc2ccc(Cl)cc2)C[C@@H](CO)O1
[14]
  IC50: > 80 µM (inactive)

## O=S(=O)(c1ccc(Cl)cc1)N1CCN(Cc2nc(O)c3ccc(Cl)cc3n2)CC1
[14]
  IC50: > 80 µM (inactive)

## N#Cc1ccc(-c2nc3ccc(Br)cn3c2Cc2ccccc2C(F)(F)F)cc1
[7]
  IC50: 13.1 µM (active)
[8]
  IC50: 11.4 µM (active)

## CC(C)(C)OC(=O)N1CCC(C(=O)Nc2ccc3c(c2)CCC3)CC1
[5]
  IC50: > 67.5 µM (inactive)
[6]
  IC50: > 67.5 µM (inactive)

## N#Cc1ccc(C(C(=O)NCc2ccccc2)n2c(=O)c(-c3ccco3)nc3ccccc32)cc1 (centres undefined)
[1]
  IC50: 1.3 µM (active)

## CC(=O)Nc1cc(-c2cccc(C(=O)NCCN(C)C)c2)cn2c(-c3ccccc3)cnc12
[2]
  AC50: 33.5 µM (active)
[15]
  AC50: 4.01 µM (active)
